Among the data in PubChem BioAssay AID651601 (Sanford-Burnham Center for Chemical Genomics, 2012) are IC50 values, retold here.

A word on the IC50: it is the concentration at which inhibition is half-maximal. Lower therefore signals higher potency.

The structures appear in SMILES notation.

What all share (experiment): chemokine receptor panel antagonism: CCR6, CXCR5, CXCR6, profiling panel, selectivity assay for CXCR6 antagonist project, cell-based, CHO-K1 PathHunter beta-arrestin, luminescence (AID 651601)
Holding throughout (conditions): antagonist mode

Test [1] addresses C-X-C chemokine receptor type 6 (Homo sapiens) (UniProt O00574).
Test [2] addresses C-C chemokine receptor type 6 (Homo sapiens) (UniProt P51684).
The target of test [3] is C-X-C chemokine receptor type 5 (Homo sapiens) (UniProt P32302).
Chain of C-X-C chemokine receptor type 5 (Homo sapiens) (P32302 whole entry, looked up): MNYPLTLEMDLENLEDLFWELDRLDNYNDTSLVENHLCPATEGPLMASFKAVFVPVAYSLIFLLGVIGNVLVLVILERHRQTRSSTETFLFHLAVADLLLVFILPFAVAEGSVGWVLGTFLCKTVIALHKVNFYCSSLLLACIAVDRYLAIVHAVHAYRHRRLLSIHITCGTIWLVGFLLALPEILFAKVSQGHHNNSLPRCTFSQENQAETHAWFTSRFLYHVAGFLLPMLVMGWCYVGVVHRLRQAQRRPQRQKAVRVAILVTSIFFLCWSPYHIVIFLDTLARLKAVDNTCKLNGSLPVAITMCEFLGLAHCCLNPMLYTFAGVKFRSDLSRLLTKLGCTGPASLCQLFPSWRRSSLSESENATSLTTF
Where [4] appears, read: CXCR6, mean of runs, mean IC50 across replicates.
The mark [5] stands for this setting: CCR6, mean of runs, mean IC50 across replicates.
The mark [6] stands for this setting: CXCR5, mean of runs, mean IC50 across replicates.

Chain of C-X-C chemokine receptor type 6 (Homo sapiens) (O00574 whole entry, looked up): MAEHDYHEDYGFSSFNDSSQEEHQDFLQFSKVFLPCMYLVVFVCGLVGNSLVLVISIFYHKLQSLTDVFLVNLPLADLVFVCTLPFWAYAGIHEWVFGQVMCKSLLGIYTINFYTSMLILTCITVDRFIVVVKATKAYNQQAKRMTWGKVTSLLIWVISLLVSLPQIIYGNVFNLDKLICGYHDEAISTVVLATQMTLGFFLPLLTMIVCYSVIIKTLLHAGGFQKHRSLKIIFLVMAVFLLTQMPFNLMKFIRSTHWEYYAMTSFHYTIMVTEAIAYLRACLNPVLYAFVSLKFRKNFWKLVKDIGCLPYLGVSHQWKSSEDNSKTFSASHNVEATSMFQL
Chain of C-C chemokine receptor type 6 (Homo sapiens) (P51684 whole entry, looked up): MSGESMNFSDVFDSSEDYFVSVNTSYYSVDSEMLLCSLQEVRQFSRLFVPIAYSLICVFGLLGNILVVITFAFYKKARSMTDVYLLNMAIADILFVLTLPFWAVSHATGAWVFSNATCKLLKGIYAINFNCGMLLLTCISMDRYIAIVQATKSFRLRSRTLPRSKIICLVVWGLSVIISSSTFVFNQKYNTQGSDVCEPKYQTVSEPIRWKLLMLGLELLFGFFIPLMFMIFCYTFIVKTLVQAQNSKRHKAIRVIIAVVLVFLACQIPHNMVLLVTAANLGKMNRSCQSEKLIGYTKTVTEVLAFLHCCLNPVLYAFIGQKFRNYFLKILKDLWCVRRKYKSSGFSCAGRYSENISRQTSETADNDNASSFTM

Take `O=C(CN1C2CCCC1CC(NC(=O)c1ccccc1)C2)Nc1ccccc1` (stereo not drawn): the IC50 was above 80 µM in test [1] (setting [4]); above 80 µM in test [1] (CXCR6, run 1); above 80 µM in test [1] (CXCR6, run 2); above 80 µM in test [1] (CXCR6, run 3); above 80 µM in test [1] (CXCR6, run 4); above 80 µM in test [2] (setting [5]). Further, the IC50 in test [2] (CCR6, run 1) was above 80 µM; in test [2] (CCR6, run 2), above 80 µM; in test [2] (CCR6, run 3) it was above 80 µM; in test [2] (CCR6, run 4), above 80 µM; in test [3] (setting [6]), above 66.6 µM; in test [3] (CXCR5, run 1) it was above 66.6 µM. Moreover, in test [3] (CXCR5, run 2), the 50% inhibitory concentration (IC50) was above 66.6 µM.
Take `COc1cc(C(=O)NC2CC3CCCC(C2)N3CC(=O)Nc2ccccc2)cc(OC)c1OC` (stereo not drawn): the IC50 in test [1] (setting [4]) is 14.3 µM; in test [1] (CXCR6, run 1), 4.79 µM; in test [1] (CXCR6, run 2), 5.96 µM; in test [1] (CXCR6, run 3), 5.86 µM; in test [1] (CXCR6, run 4) it was 40.6 µM; in test [2] (setting [5]) it was above 80 µM. Also, the concentration for half-maximal inhibition (IC50) in test [2] (CCR6, run 1) is above 80 µM; in test [2] (CCR6, run 2), above 80 µM; in test [2] (CCR6, run 3) it was above 80 µM; in test [2] (CCR6, run 4), above 80 µM; in test [3] (setting [6]), above 66.6 µM; in test [3] (CXCR5, run 1) it was above 66.6 µM. Also, the IC50 in test [3] (CXCR5, run 2) was above 66.6 µM.
As for `CN(C)c1ccc(NC(=O)CN2C3CCCC2CC(NC(=O)c2ccccc2)C3)cc1` (stereo not drawn), the IC50 is above 80 µM in test [1] (setting [4]); above 80 µM in test [1] (CXCR6, run 1); above 80 µM in test [1] (CXCR6, run 2); above 80 µM in test [1] (CXCR6, run 3); above 80 µM in test [1] (CXCR6, run 4); above 80 µM in test [2] (setting [5]). Moreover, the IC50 in test [2] (CCR6, run 1) was above 80 µM; in test [2] (CCR6, run 2), above 80 µM; in test [2] (CCR6, run 3) it was above 80 µM; in test [2] (CCR6, run 4), above 80 µM; in test [3] (setting [6]), above 66.6 µM; in test [3] (CXCR5, run 1), above 66.6 µM. In addition, in test [3] (CXCR5, run 2), the half-inhibitory concentration (IC50) is above 66.6 µM.
As to `COc1cccc(C(=O)NC2CC3CCCC(C2)N3CC(=O)Nc2ccccc2C(F)(F)F)c1` (stereo not drawn), the concentration for half-maximal inhibition (IC50) is above 80 µM in test [1] (setting [4]); above 80 µM in test [1] (CXCR6, run 1); above 80 µM in test [1] (CXCR6, run 2); above 80 µM in test [1] (CXCR6, run 3); above 80 µM in test [1] (CXCR6, run 4); above 80 µM in test [2] (setting [5]). In addition, the half-inhibitory concentration (IC50) in test [2] (CCR6, run 1) was above 80 µM; in test [2] (CCR6, run 2), above 80 µM; in test [2] (CCR6, run 3), above 80 µM; in test [2] (CCR6, run 4) it was above 80 µM; in test [3] (setting [6]), above 66.6 µM; in test [3] (CXCR5, run 1), above 66.6 µM. Further, the IC50 in test [3] (CXCR5, run 2) was above 66.6 µM.
Regarding `O=C(CN1C2CCCC1CC(NC(=O)c1ccccc1)C2)Nc1ccccc1C(F)(F)F` (stereo not drawn), the IC50 in test [1] (setting [4]) was above 80 µM; in test [1] (CXCR6, run 1) it was above 80 µM; in test [1] (CXCR6, run 2) it was above 80 µM; in test [1] (CXCR6, run 3), above 80 µM; in test [1] (CXCR6, run 4) it was above 80 µM; in test [2] (setting [5]) it was above 80 µM. Moreover, the concentration for half-maximal inhibition (IC50) in test [2] (CCR6, run 1) was above 80 µM; in test [2] (CCR6, run 2), above 80 µM; in test [2] (CCR6, run 3) it was above 80 µM; in test [2] (CCR6, run 4) it was above 80 µM; in test [3] (setting [6]), above 66.6 µM; in test [3] (CXCR5, run 1) it was above 66.6 µM. The IC50 in test [3] (CXCR5, run 2) was above 66.6 µM.
Consider `COc1cccc(C(=O)NC2CC3CCCC(C2)N3CC(=O)Nc2ccc(N(C)C)cc2)c1` (stereo not drawn), for which the half-maximal inhibitory concentration (IC50) is above 80 µM in test [1] (setting [4]); above 80 µM in test [1] (CXCR6, run 1); above 80 µM in test [1] (CXCR6, run 2); above 80 µM in test [1] (CXCR6, run 3); above 80 µM in test [1] (CXCR6, run 4); above 80 µM in test [2] (setting [5]). Moreover, the 50% inhibitory concentration (IC50) in test [2] (CCR6, run 1) was above 80 µM; in test [2] (CCR6, run 2), above 80 µM; in test [2] (CCR6, run 3), above 80 µM; in test [2] (CCR6, run 4), above 80 µM; in test [3] (setting [6]), above 66.6 µM; in test [3] (CXCR5, run 1) it was above 66.6 µM. The IC50 in test [3] (CXCR5, run 2) was above 66.6 µM.
